The NIST ThermoML archive (doi:10.1016/j.jct.2008.04.016)

Key:
[1] = refractive index (Na D-line) (dimensionless); settings: 101.33 kPa, Liquid
[2] = for viscosity / mass density: 101.33 kPa, Liquid

CCCCCCn1cc[n+](C)c1.F[B-](F)(F)F [1-hexyl-3-methylimidazolium tetrafluoroborate]
Settings | mass density [kg/m3] | refractive index | surface tension liquid-gas [mN/m] | viscosity [mPa·s]
[1], 302.95 K | – | 1.42672 | – | –
[1], 307.75 K | – | 1.42613 | – | –
[1], 313.15 K | – | 1.42539 | – | –
[1], 318.05 K | – | 1.42443 | – | –
[1], 322.95 K | – | 1.42346 | – | –
[1], 328.05 K | – | 1.42232 | – | –
[1], 332.95 K | – | 1.42146 | – | –
[2], 288.2 K | – | – | – | 141
[2], 298.15 K | 1145.32 | – | 36.8 | –
[2], 298.2 K | – | – | – | 102
[2], 308.15 K | 1138.51 | – | 35.6 | –
[2], 308.2 K | – | – | – | 69
[2], 318.15 K | 1131.67 | – | 34.2 | –
[2], 318.2 K | – | – | – | 43
[2], 328.15 K | 1124.89 | – | 33 | –
[2], 328.2 K | – | – | – | 30
[2], 338.15 K | 1118.16 | – | 32.7 | –
[2], 338.2 K | – | – | – | 21
[2], 348.15 K | 1111.47 | – | – | –
[2], 358.15 K | 1104.84 | – | – | –

CCCCCCn1cc[n+](C)c1.F[P-](F)(F)(F)(F)F [1-hexyl-3-methylimidazolium hexafluorophosphate]
Settings | mass density [kg/m3] | refractive index | surface tension liquid-gas [mN/m] | viscosity [mPa·s]
[1], 302.95 K | – | 1.41694 | – | –
[1], 307.75 K | – | 1.41631 | – | –
[1], 313.15 K | – | 1.41531 | – | –
[1], 318.05 K | – | 1.41479 | – | –
[1], 322.95 K | – | 1.41362 | – | –
[1], 328.05 K | – | 1.41307 | – | –
[1], 332.95 K | – | 1.41231 | – | –
[2], 288.2 K | – | – | – | 1018
[2], 298.15 K | 1293.41 | – | 42.1 | –
[2], 298.2 K | – | – | – | 607
[2], 308.15 K | 1285.78 | – | 40.7 | –
[2], 308.2 K | – | – | – | 345
[2], 318.15 K | 1277.92 | – | 39.4 | –
[2], 318.2 K | – | – | – | 215
[2], 328.15 K | 1269.88 | – | 38 | –
[2], 328.2 K | – | – | – | 152
[2], 338.15 K | 1262.13 | – | 36.6 | –
[2], 338.2 K | – | – | – | 113
[2], 348.15 K | 1254.36 | – | – | –
[2], 348.2 K | – | – | – | 87
[2], 358.15 K | 1246.81 | – | – | –

CCCCCC[n+]1ccn(C)c1.O=S(=O)([N-]S(=O)(=O)C(F)(F)F)C(F)(F)F
Settings | mass density [kg/m3] | refractive index | surface tension liquid-gas [mN/m] | viscosity [mPa·s]
[1], 302.95 K | – | 1.42958 | – | –
[1], 307.75 K | – | 1.42844 | – | –
[1], 313.15 K | – | 1.42737 | – | –
[1], 318.05 K | – | 1.42649 | – | –
[1], 322.95 K | – | 1.42578 | – | –
[1], 328.05 K | – | 1.42484 | – | –
[1], 332.95 K | – | 1.42376 | – | –
[2], 288.2 K | – | – | – | 97
[2], 298.15 K | 1372.13 | – | 32.5 | –
[2], 298.2 K | – | – | – | 68
[2], 308.15 K | 1363.17 | – | 31.6 | –
[2], 308.2 K | – | – | – | 46
[2], 318.15 K | 1354.23 | – | 30.5 | –
[2], 318.2 K | – | – | – | 32
[2], 328.15 K | 1344.94 | – | 29.7 | –
[2], 328.2 K | – | – | – | 24
[2], 338.15 K | 1335.86 | – | 28.6 | –
[2], 348.15 K | 1326.91 | – | – | –
[2], 358.15 K | 1318.16 | – | – | –
